Structures can show the parent of a compound that is named as a salt.
Assays:
Type in all cases: biochemical
[1] = system: serotonine (5-HT) reuptake in synaptosomes; assay: Inhibition of 3H-5-HT reuptake in synaptosomes; conditions: read-out: 5-HT-uptake IC50
Procedure: (§1) Compounds were tested for their ability to inhibit the reuptake of the monoamine neurotransmitters dopamine (DA) noradrenaline (NA) and serotonine (5-HT) in synaptosomes as described in WO 97/16451 (NeuroSearch A/S).
(§2) The test values are given as IC50 (the concentration (μM) of the test substance which inhibits the specific binding of ^3H-DA, ^3H-NA, or ^3H-5-HT by 50%).

[2] = system: dopamine (DA) reuptake in synaptosomes; assay: Inhibition of 3H-DA reuptake in synaptosomes; conditions: read-out: DA-uptake IC50
Procedure: as §1, §2

[3] = system: noradrenaline (NA) reuptake in synaptosomes; assay: Inhibition of 3H-NA reuptake in synaptosomes; conditions: read-out: NA-uptake IC50
Procedure: as §1, §2

**Q.** CN1[C@@H]2CC[C@H]1C[C@H](Oc1ccc(C#Cc3ccccc3)cc1)C2 [Compound C1, exo-8-Methyl-3-(4-phenylethynyl-phenoxy)-8-aza-bicyclo[3.2.1]octane fumaric acid salt] was tested. Which IC50 [1] did it give?
**A.** 0.72 µM

**Q.** What about the IC50 [2] of the same molecule?
**A.** 0.024 µM

**Q.** What about the IC50 [3] of the same molecule?
**A.** 0.079 µM

From patent US20110015235A1, “NOVEL PHENYLETHYNYL DERIVATIVES OF 8-AZA-BICYCLO[3.2.1]OCTANE AND THEIR USE AS MONOAMINE NEUROT[…]-UPTAKE INHIBITORS” (NeuroSearch A/S, priority 2008, published 2011)
